# Values joined by “and” are separate entries in the source; they are usually repeats but may differ in a detail not shown here. Equal entries are not always repeated.
# Columns and labels:
# [1] = tested on: blood pressure of cats; assay: Reduction of blood pressure of cat; type: in vivo; details: cats, 10 mg/kg o.s; for Diastolic pressure, individual animals / Systolic pressure, Animal 1-4 individually: 10 mg/kg
# Protocol: (§1) A spontaneously hypertensive rat (SHR) was anesthetized with 40 mg/ml pentobarbital, and fixed by its back on an experimental stand. The skin at its neck was cut open after removing hair, and thereafter the right common carotid artery was separated with its proximal end being clamped by a artery clamp and its axifugal end being ligated by a thread. A V-shape cut was made with scissors at the axifugal end, into which an arterial cannula filled with heparin physiological saline was inserted. The arterial cannula was connected with a blood pressure transducer, and then the blood pressure transducer was connected to a computer-controlled three-way physiological-pharmacological recorder. The right femoral vein of the rat was separated and intubated for the injection of a drug. When the blood pressure became stable (i.e., the blood pressure contraction curve became straight), the rat was administered by intravenous route.
# Five cats of 2.5-3.2 kg were administered orally and intravenously respectively according to the method in Example 8, and then their systolic pressure and diastolic pressure were determined using normal cats non-administered as a control group.
# [2] = tested on: aorta smooth muscle of rabbit; assay: Effects on aorta of rabbit (contraction of isolated aorta section caused by adrenalin); design: species or system New Zealand rabbit
# Protocol: A New Zealand rabbit was beheaded and unconscious. After thoracotomy, its thoracic aorta was quickly taken out, and quickly placed in and flushed with a pre-cooled LOCK's solution (which comprised of 1000 ml water, 9 g NaCl, 0.35 g KCl, 0.35 g MgSO4.7H2O, 0.16 g KH2PO4, and 1 g NaHCO3) to remove bloodiness. The connective tissue outside the blood vessel was carefully cut off, and an aorta section of 2-3 mm wide at an angle of 45° relative to the vessel was taken for use in the following test.
# The aorta section of 2 cm long was clamped at its both ends with frog heart clips, and put in a thermostatic perfusion tank of 38° C. with the lower end being fixed at the bottom of the tank and the top end being connected by a thread to a tensile transducer of a two-way electrophysiolograph. Oxygen was bubbled to the solution in the perfusion tank, and the contraction force of the aorta section was recorded after balancing it in the solution for 80 min. During which, the LOCK's solution was changed once per 20 min. After adding 1.2×10^−6 mg/ml adrenalin to the solution, the contraction curve of the aorta section was recorded.
# [3] = tested on: blood pressure of SHR rat; assay: Reduction of blood pressure of anesthetized SHR rat; type: in vivo, spontaneously hypertensive rat (SHR); details: for Diastolic pressure / Systolic pressure: 10 mg/kg intravenous
# Protocol: as §1
# [4] = tested on: ileum smooth muscle of guinea pig; assay: Effects on ileum smooth muscle of guinea pig (automatic rhythmic contraction of isolated ileum section)
# Protocol: The section was clamped at its both ends with frog heart clips, and placed in a perfusion tank with the lower end being fixed at the bottom of the tank and the top end being connected by a thread to a tensile transducer of a two-way electrophysiolograph, so that the automatic rhythmic contraction of the ileum section was recorded. The Tai's nutrient solution in the tank was kept at a temperature of 35° C., into which pure […] was bubbled. […] The normal contraction curve of the ileum section was firstly recorded using isoprenaline as a positive control.
# [5] = concentration range 5×10^−4 to 10×10^−2 mg/ml
# [6] = SHR rat, 5 min after administration
# [7] = SHR rat, 60 min after administration
# [8] = SHR rat, 120 min after administration
# [9] = SHR rat, 240 min after administration
smiles,measurement,setting,value
"CC1(C)CNCC(C)(C)C1=O [Compound of formula II, 3,3,5,5-tetramethyl-4-piperidone]",Average Diastolic pressure,[1]; 40 min after administration,95.25 mmHg
same,Average Systolic pressure,[1]; 40 min after administration,140.5 mmHg
same,"Diastolic pressure, individual animals",[1]; 40 min after administration,107 mmHg and 100 mmHg and 95 mmHg and 79 mmHg
same,"Systolic pressure, Animal 1-4 individually",[1]; 40 min after administration,146 mmHg and 133 mmHg and 143 mmHg and 140 mmHg
same,Average Diastolic pressure,[1]; 50 min after administration,101 mmHg
same,Average Systolic pressure,[1]; 50 min after administration,144.25 mmHg
same,"Diastolic pressure, individual animals",[1]; 50 min after administration,110 mmHg and 116 mmHg and 95 mmHg and 83 mmHg
same,"Systolic pressure, Animal 1-4 individually",[1]; 50 min after administration,149 mmHg and 140 mmHg and 144 mmHg (2×)
same,Average Diastolic pressure,[1]; 60 min after administration,103 mmHg
same,Average Systolic pressure,[1]; 60 min after administration,144 mmHg
same,"Diastolic pressure, individual animals",[1]; 60 min after administration,110 mmHg and 117 mmHg and 102 mmHg and 83 mmHg
same,"Systolic pressure, Animal 1-4 individually",[1]; 60 min after administration,149 mmHg and 153 mmHg and 130 mmHg and 144 mmHg
same,Average Diastolic pressure,[1]; 90 min after administration,103.75 mmHg
same,Average Systolic pressure,[1]; 90 min after administration,157 mmHg
same,"Diastolic pressure, individual animals",[1]; 90 min after administration,102 mmHg and 120 mmHg and 97 mmHg and 96 mmHg
same,"Systolic pressure, Animal 1-4 individually",[1]; 90 min after administration,154 mmHg (2×) and 180 mmHg and 140 mmHg
same,Average Diastolic pressure,[1]; 120 min after administration,108.25 mmHg
same,Average Systolic pressure,[1]; 120 min after administration,165 mmHg
same,"Diastolic pressure, individual animals",[1]; 120 min after administration,93 mmHg and 154 mmHg and 96 mmHg and 90 mmHg
same,"Systolic pressure, Animal 1-4 individually",[1]; 120 min after administration,146 mmHg and 195 mmHg and 163 mmHg and 156 mmHg
same,Average Diastolic pressure,[1]; 150 min after administration,111.75 mmHg
same,Average Systolic pressure,[1]; 150 min after administration,169.25 mmHg
same,"Diastolic pressure, individual animals",[1]; 150 min after administration,93 mmHg and 161 mmHg and 109 mmHg and 84 mmHg
same,"Systolic pressure, Animal 1-4 individually",[1]; 150 min after administration,146 mmHg and 206 mmHg and 168 mmHg and 157 mmHg
same,Average Diastolic pressure,[1]; 180 min after administration,117.5 mmHg
same,Average Systolic pressure,[1]; 180 min after administration,176.25 mmHg
same,"Diastolic pressure, individual animals",[1]; 180 min after administration,107 mmHg and 164 mmHg and 112 mmHg and 87 mmHg
same,"Systolic pressure, Animal 1-4 individually",[1]; 180 min after administration,158 mmHg and 213 mmHg and 170 mmHg and 164 mmHg
same,Average Systolic pressure,[1]; 210 min after administration,176.5 mmHg
same,"Systolic pressure, Animal 1-4 individually",[1]; 210 min after administration,159 mmHg and 213 mmHg and 170 mmHg and 164 mmHg
same,Average Systolic pressure,[1]; 240 min after administration,182.75 mmHg
same,"Systolic pressure, Animal 1-4 individually",[1]; 240 min after administration,178 mmHg and 213 mmHg and 176 mmHg and 164 mmHg
same,Average Diastolic pressure,[1]; before administration,147.5 mmHg
same,Average Systolic pressure,[1]; before administration,202.5 mmHg
same,"Diastolic pressure, individual animals",[1]; before administration,143 mmHg and 165 mmHg and 145 mmHg and 137 mmHg
same,"Systolic pressure, Animal 1-4 individually",[1]; before administration,191 mmHg and 215 mmHg and 196 mmHg and 208 mmHg
same,Time of taking effect,[2]; concentration 1 × 10^−4 mg/ml,2 min
same,Contraction force,"[2]; concentration 1 × 10^−4 mg/ml, 10 min, then adrenalin 1.2×10^−6 mg/ml, relative to original value",0.3
same,reduction of the contraction of aorta section caused by adrenalin,[2]; concentration range 5×10^−3-1×10^−4 mg/ml,could obviously reduce the contraction of aorta section caused by adrenalin
same,inhibition of the contraction of aorta smooth muscle caused by adrenalin,[2]; [5],inhibit the contraction of aorta smooth muscle of rabbit caused by adrenalin
same,"contraction force resumed by adrenalin, fraction of the original value","[2]; sample 10 min, then adrenalin 1.2×10^−6 mg/ml, stated for the three samples together",½-⅓
same,effect of reducing blood pressure,"[3]; 5-20 mg/kg, model of anesthetic rat",very obvious effect of reducing blood pressure
same,Diastolic pressure,[3]; [6],105 ± 11 mm/Hg
same,Systolic pressure,[3]; [6],141 ± 9.2 mm/Hg
same,Diastolic pressure,[3]; [7],84 ± 11 mm/Hg
same,Systolic pressure,[3]; [7],120 ± 12 mm/Hg
same,Diastolic pressure,[3]; [8],83 ± 21 mm/Hg
same,Systolic pressure,[3]; [8],125 ± 14 mm/Hg
same,Diastolic pressure,[3]; [9],110 ± 18 mm/Hg
same,Systolic pressure,[3]; [9],163 ± 12 mm/Hg
same,Diastolic pressure,"[3]; SHR rat, before administration",124 ± 12 mm/Hg
same,Systolic pressure,"[3]; SHR rat, before administration",174 ± 11 mm/Hg
same,reduction of systolic pressure and diastolic pressure,"[3]; SHR rat, dosage range 10-200 mg/kg, intravenous",could obviously reduce the systolic pressure and diastolic pressure of SHR rat
same,Relaxation Time,[4]; concentration 1 × 10^−4 mg/ml,7 h
same,Time of taking effect,[4]; concentration 1 × 10^−4 mg/ml,2 min
same,inhibition of the automatic rhythmic contraction of ileum section,[4]; [5],inhibit the automatic rhythmic contraction of ileum section
same,inhibition of the automatic rhythmic contraction of the ileum section,[4]; different concentrations,could inhibit the automatic rhythmic contraction of the ileum section

# — patent US7608630B2, “Marasmius androsaceus L.es Fr extract, piperidone derivative, and their use for the preparation of hypertensives” (Hainan Yangpu New Special Pharmaceutical Co., Ltd., priority 2004, dated 2009)
